Measurements taken from patent publication US20220389009A1, “SUBSTITUTED 1,6-NAPHTHYRIDINE INHIBITORS OF CDK5” (Goldfinch Bio, Inc., priority 2019, published 2022).
Where two headings read alike, the source gives them in different places.

How the values were obtained:
CDK2/CycA2 = CDK2/CycA2 (Homo sapiens, UniProt P24941); assay: CDK2 mobility shift assay (enzymatic activity of CDK2/CycA2); type: biochemical; conditions: 1.25 nM CDK2/CycA2, 37 μM ATP, FL Peptide 18, 120 min at room temperature; read-out: CDK2 IC50
Description: (§1) Compound potency was measured via a change in the enzymatic activity of CDK5/p25, and optionally of CDK2/CycA2. Enzymes, CDK5/p25 and CDK2/CycA2, were sourced from Carna Biosciences (Cat #04-106 and 04-103, respectively). Test compound stocks were diluted in 100% DMSO and serially diluted 3-fold in a 384-well plate using a TECAN EVO200 (TECAN). Staurosporine was used as a reference control compound in all assays.
(§2) Twenty nL of compound were transferred into a 384-well plate (Greiner 781201) using an Echo550 (Labcyte Inc). Enzyme, ATP, and 10 mM MgCl2 were preincubated at room temperature with the compound in assay buffer (50 mM HEPES pH 7.5, 1 mM EGTA, 0.01% Brij-35, 0.05% BSA, 2 mM DTT) for 30 minutes. Peptide substrate (FL peptide 29 (Perkin Elmer) for CDK5/p25; FL Peptide 18 (Perkin Elmer) for CDK2/CycA2) was added to initiate the reaction. The final assay contained 0.154 nM CDK5/p25 or 1.25 nM CDK2/CycA2, […] (for CDK5/p25) or 37 μM (for CDK2/CycA2) ATP, and 1.5 μM of the appropriate peptide substrate. The final DMSO concentration was <1%.
(§3) The CDK5/p25 reaction was incubated at room temperature for 60 min. The CDK2/CycA2 reaction was incubated at room temperature for 120 min. The reactions were quenched by the addition of 70 μL stopping buffer containing 0.5 M EDTA. Samples were analyzed using the EZ Reader (Perkin Elmer).
(§4) The results were expressed as % vehicle, where % vehicle=100×(U−C2)/(C1−C2), where U is the signal of sample, C1 is the average of the high controls (signal with no compound added), and C2 is the average of low controls (signal with the buffer in place of enzyme). The ICso is determined by fitting the percentage of inhibition as a function of compound concentrations using a 4-parameter fit defined as follows.
(§5) Y=Bottom+(Top−Bottom)/(1+10^((LobIC50-X)*Hill Slope)), where X is the log of the compound concentration, Y is the % vehicle or response at X, Top and Bottom are the plateaus in the same units as Y, and the Hill's Slope is unitless, and the ICso is the half-maximal inhibitory concentration.

CDK5/p25 = CDK5/p25 (Homo sapiens, UniProt Q00535); assay: CDK5 mobility shift assay (enzymatic activity of CDK5/p25); type: biochemical; conditions: for IC50: 0.154 nM CDK5/p25, FL peptide 29, 60 min at room temperature, read-out: CDK5 IC50
Chain of CDK5/p25 (Q00535 whole entry): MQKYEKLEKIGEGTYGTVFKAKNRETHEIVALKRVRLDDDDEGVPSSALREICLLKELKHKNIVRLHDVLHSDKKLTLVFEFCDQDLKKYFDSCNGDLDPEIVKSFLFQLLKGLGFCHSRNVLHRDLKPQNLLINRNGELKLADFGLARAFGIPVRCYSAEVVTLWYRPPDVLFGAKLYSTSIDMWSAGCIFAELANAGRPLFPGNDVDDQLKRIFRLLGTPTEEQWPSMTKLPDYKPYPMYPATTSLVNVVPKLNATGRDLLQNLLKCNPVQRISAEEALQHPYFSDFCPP
Chain of CDK5/p25 (Q15078 99-307 partner limits assumed): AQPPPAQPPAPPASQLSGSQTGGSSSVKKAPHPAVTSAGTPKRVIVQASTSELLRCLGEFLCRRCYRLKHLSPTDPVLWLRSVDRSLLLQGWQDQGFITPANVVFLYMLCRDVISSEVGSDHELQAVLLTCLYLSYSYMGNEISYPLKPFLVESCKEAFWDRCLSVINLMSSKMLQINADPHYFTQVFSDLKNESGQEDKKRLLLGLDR
Description: as §1, §2, §3, §4, §5

[1] = fold more active against CDK5 than CDK2

Compound	IC50 (CDK2/CycA2)	CDK5/CDK2 specificity (CDK5/p25)	IC50 (CDK5/p25)	CDK5/CDK2 specificity (CDK5/p25; [1])
3-fluoro-4-([2-[(1R)-1-hydroxy-1-(1-methylpiperidin-4-yl)ethyl]-1,6-naphthyridin-7-yl]amino)-[1,1-biphenyl]-3-carboxylic acid [Compound 360]	10 to 100 nM	++ (greater than 10-fold and less than or equal to 100-fold more active against CDK5 than CDK2)	< 10 nM	–
CC(c1ccc2cnc(Nc3ccc(-c4noc(=O)[nH]4)cc3F)cc2n1)C1CCN(C)CC1 (racemic) [Compound 368]	100 to 1000 nM	–	< 10 nM	++ (greater than 10-fold and less than or equal to 100-fold more active against CDK5 than CDK2)
O=C(O)[C@@H]1CNCC[C@@H]1Nc1ccc2cnc(Nc3ccc(-n4ccc(CO)n4)cc3F)cc2n1 (relative stereo) [Compound 131, cis-4-[[7-([2-fluoro-4-[3-(hydroxymethyl)pyrazol-1-yl]phenyl]amino)-1,6-naphthyridin-2-yl]amino]piperidine-3-carboxylic acid]	> 1000 nM	–	100 to 1000 nM	++ (greater than 10-fold and less than or equal to 100-fold more active against CDK5 than CDK2)
CN1CCC(C(O)c2ccc3cnc(Nc4ccc(-n5cccn5)cc4F)cc3n2)CC1 (single isomer, unassigned) [Compound 175, (7-[[2-fluoro-4-(pyrazol-1-yl)phenyl]amino]-1,6-naphthyridin-2-yl) (1-methylpiperidin-4-yl)methanol]	100 to 1000 nM	–	< 10 nM	+++ (greater than 100-fold more active against CDK5 than CDK2)
CN1CCC(C(O)c2ccc3cnc(Nc4ccc(-n5cccn5)cc4F)cc3n2)CC1 (single isomer, unassigned) [Compound 176, (7-[[2-fluoro-4-(pyrazol-1-yl)phenyl]amino]-1,6-naphthyridin-2-yl) (1-methylpiperidin-4-yl)methanol]	100 to 1000 nM	–	100 to 1000 nM	+ (10-fold or less more active against CDK5 than CDK2)
CC(c1ccc2cnc(Nc3ccc(-n4ccc(CO)n4)cc3F)cc2n1)C1CCN(C)CC1 (single isomer, unassigned) [Compound 186, [1-[3-fluoro-4-([2-[1-(1-methylpiperidin-4-yl)ethyl]-1,6-naphthyridin-7-yl]amino)phenyl]pyrazol-3-yl]methanol]	> 1000 nM	–	10 to 100 nM	++ (greater than 10-fold and less than or equal to 100-fold more active against CDK5 than CDK2)
CC(c1ccc2cnc(Nc3ccc(-n4ccc(CO)n4)cc3F)cc2n1)C1CCN(C)CC1 (single isomer, unassigned) [Compound 188, [1-[3-fluoro-4-([2-[1-(1-methylpiperidin-4-yl)ethyl]-1,6-naphthyridin-7-yl]amino)phenyl]pyrazol-3-yl]methanol]	100 to 1000 nM	–	< 10 nM	+++ (greater than 100-fold more active against CDK5 than CDK2)
CN1CCC(C(C)(O)c2ccc3cnc(Nc4ccc(-n5cccn5)cc4F)cc3n2)CC1 (single isomer, unassigned) [Compound 205, 1-(7-[[2-fluoro-4-(pyrazol-1-yl)phenyl]amino]-1,6-naphthyridin-2-yl)-1-(1-methylpiperidin-4-yl)ethanol]	> 1000 nM	–	100 to 1000 nM	++ (greater than 10-fold and less than or equal to 100-fold more active against CDK5 than CDK2)
CN1CCC(C(C)(O)c2ccc3cnc(Nc4ccc(-n5cccn5)cc4F)cc3n2)CC1 (single isomer, unassigned) [Compound 216, 1-(7-[[2-fluoro-4-(pyrazol-1-yl)phenyl]amino]-1,6-naphthyridin-2-yl)-1-(1-methylpiperidin-4-yl)ethanol]	10 to 100 nM	–	< 10 nM	++ (greater than 10-fold and less than or equal to 100-fold more active against CDK5 than CDK2)
CN1CCC(C(O)c2ccc3cnc(Nc4ccc(-n5ccc(CO)n5)cc4F)cc3n2)CC1 (single isomer, unassigned) [Compound 247, [7-([2-fluoro-4-[3-(hydroxymethyl)pyrazol-1-yl]phenyl]amino)-1,6-naphthyridin-2-yl](1-methylpiperidin-4-yl)methanol]	> 1000 nM	–	10 to 100 nM	++ (greater than 10-fold and less than or equal to 100-fold more active against CDK5 than CDK2)
N#Cc1cccc(-c2ccc(Nc3cc4nc(C(O)C5CCN(CCO)CC5)ccc4cn3)c(F)c2)c1 (single isomer, unassigned) [Compound 250, 3′-fluoro-4′-[(2-[hydroxy[1-(2-hydroxyethyl)piperidin-4-yl]methyl]-1,6-naphthyridin-7-yl)amino]-[1,1′-biphenyl]-3-carbonitrile]	100 to 1000 nM	–	< 10 nM	++ (greater than 10-fold and less than or equal to 100-fold more active against CDK5 than CDK2)
N#Cc1cccc(-c2ccc(Nc3cc4nc(C(O)C5CCN(CCO)CC5)ccc4cn3)c(F)c2)c1 (single isomer, unassigned) [Compound 251, 3′-fluoro-4′-[(2-[hydroxy[1-(2-hydroxyethyl)piperidin-4-yl]methyl]-1,6-naphthyridin-7-yl)amino]-[1,1′-biphenyl]-3-carbonitrile]	> 1000 nM	–	10 to 100 nM	++ (greater than 10-fold and less than or equal to 100-fold more active against CDK5 than CDK2)
OCCN1CCC(C(O)c2ccc3cnc(Nc4ccc(-n5ccc(CO)n5)cc4F)cc3n2)CC1 (single isomer, unassigned) [Compound 252, 2-(4-[[7-([2-fluoro-4-[3-(hydroxymethyl)pyrazol-1-yl]phenyl]amino)-1,6-naphthyridin-2-yl](hydroxy)methyl]piperidin-1-yl)ethanol]	100 to 1000 nM	–	< 10 nM	+++ (greater than 100-fold more active against CDK5 than CDK2)
CN1CCC(C(O)c2ccc3cnc(Nc4ccc(-n5ccc(CO)n5)cc4F)cc3n2)CC1 (single isomer, unassigned) [Compound 254, [7-([2-fluoro-4-[3-(hydroxymethyl)pyrazol-1-yl]phenyl]amino)-1,6-naphthyridin-2-yl](1-methylpiperidin-4-yl)methanol]	100 to 1000 nM	–	< 10 nM	+++ (greater than 100-fold more active against CDK5 than CDK2)
OCCN1CCC(C(O)c2ccc3cnc(Nc4ccc(-n5ccc(CO)n5)cc4F)cc3n2)CC1 (single isomer, unassigned) [Compound 255, 2-(4-[[7-([2-fluoro-4-[3-(hydroxymethyl)pyrazol-1-yl]phenyl]amino)-1,6-naphthyridin-2-yl](hydroxy)methyl]piperidin-1-yl)ethanol]	> 1000 nM	–	100 to 1000 nM	++ (greater than 10-fold and less than or equal to 100-fold more active against CDK5 than CDK2)
CN1CCC(C(O)(c2ccc3cnc(Nc4ccc(-n5cccn5)cc4F)cc3n2)C(F)(F)F)CC1 (single isomer, unassigned) [Compound 343, 2,2,2-trifluoro-1-(7-((2-fluoro-4-(1H-pyrazol-1-yl)phenyl)amino)-1,6-naphthyridin-2-yl)-1-(1-methylpiperidin-4-yl)ethan-1-ol]	> 1000 nM	–	100 to 1000 nM	++ (greater than 10-fold and less than or equal to 100-fold more active against CDK5 than CDK2)
CN1CCC(C(O)(c2ccc3cnc(Nc4ccc(-n5cccn5)cc4F)cc3n2)C(F)(F)F)CC1 (single isomer, unassigned) [Compound 349, 2,2,2-trifluoro-1-(7-((2-fluoro-4-(1H-pyrazol-1-yl)phenyl)amino)-1,6-naphthyridin-2-yl)-1-(1-methylpiperidin-4-yl)ethan-1-ol]	10 to 100 nM	–	< 10 nM	++ (greater than 10-fold and less than or equal to 100-fold more active against CDK5 than CDK2)
CN1CCC(C(C)(F)c2ccc3cnc(Nc4ccc(-n5cccn5)cc4F)cc3n2)CC1 (single isomer, unassigned) [Compound 359, 2-[1-fluoro-1-(1-methylpiperidin-4-yl)ethyl]-N-[2-fluoro-4-(pyrazol-1-yl)phenyl]-1,6-naphthyridin-7-amine]	10 to 100 nM	–	< 10 nM	++ (greater than 10-fold and less than or equal to 100-fold more active against CDK5 than CDK2)
